Data taken from patent US8178506B2, “Oligomeric compounds and compositions for use in modulation of small non-coding RNAs” (Regulus Therapeutics Inc., priority 2003, dated 2012).
Where “and” joins values, the source holds several entries; their conditions need not be identical. Equal entries are not always repeated. In the oligonucleotide strings, read from the 5' end, every base follows the letter of its sugar. An asterisk marks phosphorothioate; unmarked linkages are phosphodiester. Other units and linkages are bracketed, terminal groups are in braces. A string of capitals states the bases alone. e = 2'-O-(2-methoxyethyl) (MOE); [5mC] = 5-methylcytosine; d = 2'-deoxy (DNA)

Experiments:
[1] = tested on: T47D cells; experiment: Caspase-3 activity assay (apoptosis) in T47D cells; settings: for Fold Increase over UTC (caspase-3 activity, apoptosis) / Fold Increase over UTC (caspase activity): T47D cells, 48 hours; for Fold Increase over UTC (caspase-3 activity, apoptosis): 200 nM oligomeric compound; for apoptosis in T47D cells: caspase assay, conclusion from Tables 9-12; for apoptosis in T47D cells / Fold Increase over UTC (caspase activity): 200 nM; for Fold Increase over UTC (caspase activity): relative to untreated control
[2] = tested on: BJ, B16-F10, T47D, T47Dp53 and HeLa cells; experiment: Cell cycle assay (propidium iodide flow cytometry), cell line panel; assay type: cell-based; settings: for percentage of aneuploid cells: 150 nM, 72 hours (Table 29)
[3] = tested on: HeLa cells; experiment: Cell cycle assay in HeLa cells; assay type: cell-based, human; settings: for phase of the cell cycle in which cells arrest or delay: HeLa
[4] = tested on: PPARγ; experiment: PPARγ mRNA expression in adipocytes (real-time PCR); assay type: cell-based, human; settings: differentiating adipocytes transfected with oligomeric compound
[5] = tested on: adipocytes; experiment: Triglyceride accumulation assay in adipocytes; assay type: cell-based, human; settings: differentiating adipocytes transfected with oligomeric compound
[6] = tested on: aP2; experiment: aP2 mRNA expression in adipocytes (real-time PCR); assay type: cell-based, human; settings: differentiating adipocytes transfected with oligomeric compound
[7] = tested on: HSL; experiment: HSL mRNA expression in adipocytes (real-time PCR); assay type: cell-based, human; settings: differentiating adipocytes transfected with oligomeric compound
[8] = tested on: Glut4; experiment: Glut4 mRNA expression in adipocytes (real-time PCR); assay type: cell-based, human; settings: differentiating adipocytes transfected with oligomeric compound
[9] = 150 nM oligomeric compound, 4.5 μg/ml LIPOFECTIN, after 72 hours, propidium iodide flow cytometry
[10] = HeLa cells, 25 nM, 48 hours, percentage of cells in phase, average of replicates
[11] = HeLa cells, 50 nM, 48 hours, percentage of cells in phase, average of replicates
[12] = HeLa cells, 100 nM, 48 hours, percentage of cells in phase, average of replicates
[13] = HeLa cells, 150 nM oligomeric compound, 24 hours, relative to untreated control (UTC = 100)
[14] = HeLa cells, 150 nM oligomeric compound, 48 hours after treatment, relative to untreated control (UTC=100)
[15] = HeLa cells, 150 nM, 48 hours, percentage of cells in phase, average of replicates

## 328394 (eG*eT*eT*eT*eT*dT*dT*d[5mC]*dA*dA*dA*dT*d[5mC]*d[5mC]*d[5mC]*eA*eA*eA*e[5mC]*eT) [compound 328394]
[1]; experiment of Table 12
  Fold Increase over UTC (caspase-3 activity, apoptosis): 0.8 fold
[2]; [9]
  G1 (percentage of cells in phase of the cell cycle): 59.5%
  G2/M (percentage of cells in phase of the cell cycle): 16%
  S (percentage of cells in phase of the cell cycle): 24.5%
  SubG1 (percentage of cells in phase of the cell cycle): 2.4%
  aneuploid (percentage of cells): 18.3%

## ISIS 328394: oligomeric compound targeting mir-181a (eG*eT*eT*eT*eT*dT*dT*d[5mC]*dA*dA*dA*dT*d[5mC]*d[5mC]*d[5mC]*eA*eA*eA*e[5mC]*eT)
[1]
  apoptosis in T47D cells: prevent or have a protective effect from apoptosis
[2]
  percentage of aneuploid cells: higher than average percentages of aneuploid cells

## ISIS 328421: 5-10-5 2′-MOE gapmer PS; targets mir-30d pri-miRNA (eG*e[5mC]*eT*eT*eA*dG*d[5mC]*dT*dG*dT*dG*dT*d[5mC]*dT*dT*eA*e[5mC]*eA*eG*e[5mC])
[3]; 150 nM, 24 hours
  phase of the cell cycle in which cells arrest or delay: G2/M-phase
[3]; 150 nM, 48 hours
  phase of the cell cycle in which cells arrest or delay: S- and G2/M-phases
[1]
  apoptosis in T47D cells: induce apoptosis

## 328383 (eA*eG*eA*eG*eG*dG*dG*dA*dG*dA*d[5mC]*dG*dA*dG*dA*eG*e[5mC]*eA*e[5mC]*eT) [compound 328383]
[3]; HeLa cells, 25 nM, 48 hours
  % cells in cell cycle phase: G2/M: 18%
[3]; [10]
  % cells in cell cycle phase: G1: 57%
  % cells in cell cycle phase: S: 25%
  % cells in cell cycle phase: aneuploid: 12%
  % cells in cell cycle phase: subG1: 1.9%
[3]; HeLa cells, 50 nM, 48 hours
  % cells in cell cycle phase: G2/M: 18%
[3]; [11]
  % cells in cell cycle phase: G1: 56%
  % cells in cell cycle phase: S: 25%
  % cells in cell cycle phase: aneuploid: 13%
  % cells in cell cycle phase: subG1: 1.3%
[3]; HeLa cells, 100 nM, 48 hours
  % cells in cell cycle phase: G2/M: 30%
[3]; [12]
  % cells in cell cycle phase: G1: 36%
  % cells in cell cycle phase: S: 34%
  % cells in cell cycle phase: aneuploid: 10%
  % cells in cell cycle phase: subG1: 9.3%
[3]; [13]
  % cells aneuploid: 92% and 98%
  % cells in cell cycle phase G1: 55% and 63%
  % cells in cell cycle phase G2/M: 222% and 183%
  % cells in cell cycle phase S: 82% and 97%
  % cells in cell cycle phase subG1: 314% and 289%
[3]; [14]
  % cells in cell cycle phase: G1: 53% and 54%
  % cells in cell cycle phase: G2/M: 124% and 150%
  % cells in cell cycle phase: S: 217% and 178%
  % cells in cell cycle phase: aneuploid: 90%
[3]; HeLa cells, 150 nM, 48 hours
  % cells in cell cycle phase: G2/M: 34%
[3]; [15]
  % cells in cell cycle phase: G1: 29%
  % cells in cell cycle phase: S: 36%
  % cells in cell cycle phase: aneuploid: 11%
  % cells in cell cycle phase: subG1: 11.8%
[1]; experiment of Table 10
  Fold Increase over UTC (caspase-3 activity, apoptosis): 1.2 fold

## 328651 (eG*eG*eT*eA*eA*dG*dA*dG*dG*dA*dT*dG*d[5mC]*dG*d[5mC]*eT*eG*e[5mC]*eT*e[5mC]; antisense) [compound 328651]
[4]
  PPAR gamma mRNA: 106 percentage of untreated control (UTC)
[5]
  TG (triglyceride accumulation): 93 percentage of untreated control (UTC)
[1]; experiment of Table 10
  Fold Increase over UTC (caspase-3 activity, apoptosis): 0.9 fold
[6]
  AP2 mRNA: 84 percentage of untreated control (UTC)
[7]
  HSL mRNA: 109 percentage of untreated control (UTC)
[8]
  GLUT4 mRNA: 78 percentage of untreated control (UTC)

## 328400 (antisense eA*eG*eT*eT*e[5mC]*dA*dA*dA*dA*d[5mC]*dT*d[5mC]*dA*dA*dT*e[5mC]*e[5mC]*e[5mC]*eA*eA) [compound 328400]
[4]
  PPAR gamma mRNA: 67 percentage of untreated control (UTC)
[5]
  TG (triglyceride accumulation): 60 percentage of untreated control (UTC)
[1]
  Fold Increase over UTC (caspase activity): 1.3
[6]
  AP2 mRNA: 34 percentage of untreated control (UTC)
[7]
  HSL mRNA: 40 percentage of untreated control (UTC)
[8]
  GLUT4 mRNA: 18 percentage of untreated control (UTC)

## 328417 (antisense eT*eA*eA*eT*eT*dT*dT*dA*dG*dA*dA*dT*d[5mC]*dT*dT*eA*eA*e[5mC]*eG*e[5mC]) [compound 328417]
[4]
  PPAR gamma mRNA: 94 percentage of untreated control (UTC)
[5]
  TG (triglyceride accumulation): 83 percentage of untreated control (UTC)
[1]
  Fold Increase over UTC (caspase activity): 1.0
[6]
  AP2 mRNA: 87 percentage of untreated control (UTC)
[7]
  HSL mRNA: 98 percentage of untreated control (UTC)
[8]
  GLUT4 mRNA: 68 percentage of untreated control (UTC)

## ISIS 328396: oligomeric compound targeting mir-205 (e[5mC]*eT*eG*eG*eT*dT*dG*dG*dG*dT*dA*dT*dG*dA*dG*eA*e[5mC]*eA*eG*eA)
[1]
  apoptosis in T47D cells: prevent or have a protective effect from apoptosis
[2]
  percentage of aneuploid cells: higher than average percentages of aneuploid cells
